Values quoted from earlier work in patent US20240285546A1, “TRANSDERMAL THERAPEUTIC SYSTEM CONTAINING AGOMELATINE” (LTS LOHMANN Therapie-Systeme AG, priority 2019, published 2024).

How the values were obtained:
[1] = not given; remark: listed apart in the source

COc1ccc2cccc(CCNC(C)=O)c2c1 [agomelatine, N-(2-(7-Methoxy-1-naphthyl)ethyl)acetamide]
Volume of distribution (in steady state): 35 L
Oral absorption (oral agomelatine): > 80%
Overall bioavailability (oral agomelatine): less than 5%
Increase in agomelatine exposure (AUC and cmax) (patients with moderate hepatic impairment compared to healthy subjects): up to 140 fold
Solubility in water [1]: poorly soluble
